# Test results taken from patent US10441601B2, “Method for treating schizophrenia” (St. Jude Children's Research Hospital, Inc., priority 2015, dated 2019).
# System: TC projections to the ACx
# Assay: Whole-cell recordings of TC EPSCs in acute thalamocortical slices, bath application of antipsychotics / Drd2 antagonist
# Assay type: cell-based, mouse
# Description: Acute primary thalamocortical (TC) slices (400-μm thick) containing the left auditory cortex (ACx) and the left ventral part of the medial geniculate nuclei (MGv) of the thalamus were prepared as previously described^5. […] Primary TC slices were obtained from the left hemisphere by using a slicing angle of 15°.
# Whole-cell recordings were obtained from cell bodies of layer (L) 3/4 thalamorecipient neurons in the ACx and thalamic-relay neurons in the MGv. Mice were chosen in a pseudorandom order, without the experimenter's prior knowledge of genotype or treatments. […] Voltage-clamp recordings were made using a Multiclamp 700B (Molecular Devices, Sunnyvale Calif.), digitized (10 kHz), and recorded using the pCLAMP 10.0 software (Molecular Devices, Sunnyvale Calif.). EPSCs were recorded at holding membrane potentials of −70 mV. In all experiments, membrane potentials were corrected for a liquid junction potential of −10 mV. TC excitatory postsynaptic currents (EPSCs) were evoked by current pulses (duration, 100 μs) delivered to the thalamic radiation via tungsten bipolar electrodes. Paired-pulse ratio (PPR) of TC and corticocortical (CC) EPSCs and the NMDAR/AMPAR ratio were measured as described previously^39. To ensure consistent access resistance of the recording electrode during long-term experiments, the peak amplitude of a brief (10-ms) hyperpolarizing test pulse (−5 mV) was monitored, which was given 250 ms after a stimulus. Access resistance (Ra) in recorded neurons was typically 10 to 25 MO.
# Acute primary thalamocortical (TC) slices (400 µm thick) containing the auditory cortex (ACx) and the ventral part of the medial geniculate nuclei (MGv) of the thalamus were prepared as previously described^6. […] Primary TC slices were obtained from the left hemisphere by using a slicing angle of 15°.
# Whole-cell recordings were obtained from cell bodies of layer (L) 3/4 thalamorecipient neurons in the ACx and thalamic-relay neurons in the MGv. […] Voltage-clamp recordings were made using a Multiclamp 700B, digitized (10 kHz), and recorded using the pCLAMP 10.0 software. EPSCs were recorded at holding membrane potentials of −70 mV. In all experiments, membrane potentials were corrected for a liquid junction potential of −10 mV. TC EPSCs were evoked by current pulses (duration, 100 […]s) delivered to the thalamic radiation via tungsten bipolar electrodes. To ensure consistent access resistance of the recording electrode during long-term experiments, the peak amplitude of a brief (10-ms) hyperpolarizing test pulse (−5 mV) was monitored given 250 ms after a stimulus. Access resistance (Ra) in recorded neurons was typically 10 to 25 MΩ.
# In brief, the thalamic radiation of WT mice was stimulated to evoke TC EPSCs with a rise slope of approximately 100 pA/ms. The effect of the antipsychotic agent haloperidol on TC EPSC 30 minutes after its bath application was compared to the preapplication baseline TC EPSC (AH).
smiles,measurement,setting,value
O=C(CCCN1CCC(O)(c2ccc(Cl)cc2)CC1)c1ccc(F)cc1 [haloperidol],"Effect on TC EPSCs, haloperidol alone",4-month-old miR-338+/− mice,increased TC EPSCs
same,"Further effect on TC EPSCs after L-741,626","4-month-old miR-338+/− mice, haloperidol applied on top of L-741,626 20 nM",not further elevated
same,Sensitivity of TC EPSCs to haloperidol,Df(16)1/+ mice 2 months or younger,not sensitive to haloperidol
same,Sensitivity of TC projections to haloperidol,"Df(16)1/+ mice, age dependence, haloperidol 1 μM",became sensitive to haloperidol (1 µM) only at 3 months of age
same,Sensitivity of TC projections to haloperidol,Dgcr8+/− mice older than 3 months,sensitive to haloperidol at older than 3 months of age
same,Sensitivity of TC projections to haloperidol,"WT mice, 1.5 to 7 months",not haloperidol-sensitive at any age
same,"Sensitivity of TC projections to haloperidol, age dependence","miR-338+/− mice, 1.5 to 4 months",sensitive to haloperidol in an age-independent manner
same,Effect on deficit of TC EPSCs (smaller TC EPSCs vs WT),"older Df(16)1/+ mice, haloperidol 1 μM, 30 minutes after bath application",rescued that deficit
same,Sensitivity of TC projections to haloperidol,younger Dgcr8+/− mice,not sensitive to haloperidol
"OC1(c2ccc(Cl)cc2)CCN(Cc2c[nH]c3ccccc23)CC1 [L-741,626]",Effect on TC EPSCs,"4-month-old miR-338+/− mice, L-741,626 20 nM",substantially increased
